Source: patent US9790178B2, “Pyrrolidinyl urea, thiourea, guanidine and cyanoguanidine compounds as TrkA kinase inhibitors” (Array BioPharma Inc., priority 2012, dated 2017)

Legend:
Assay in all cases: KinaseProfiler off-target kinase profiling
Assay type in all cases: biochemical
Details in all cases: 10 μM, ATP near Km
[1] = biological target: T1, ARK5 (Homo sapiens, UniProt O60285)
T1 construct: purchased Millipore, Inc. (KinaseProfiler service)
Experimental: (§1) A representative compound of the invention (Example 20) was tested for off-target kinase activity at a concentration of 10 μM by Millipore, Inc. in their KinaseProfiler™ service against all the kinases available in their full kinase panel. The compound was run in duplicate at a concentration of ATP near the Km for each individual kinase according to Millipore's specifications. The results are shown in Table B. Data are reported as percent of control (POC) and are the average of the two replicates.

[2] = biological target: T2, Axl (Homo sapiens, UniProt P30530)
T2 construct: purchased Millipore, Inc. (KinaseProfiler service)
Experimental: as §1

[3] = biological target: T3, CDK2/cyclinE (Homo sapiens, UniProt P24941)
T3 construct: purchased Millipore, Inc. (KinaseProfiler service)
Experimental: as §1

[4] = biological target: T4, CDK5/p35 (Homo sapiens, UniProt Q00535)
T4 construct: purchased Millipore, Inc. (KinaseProfiler service)
Experimental: as §1

[5] = biological target: T5, CHK2 (Homo sapiens, UniProt O96017)
T5 construct: purchased Millipore, Inc. (KinaseProfiler service)
Experimental: as §1

[6] = biological target: T6, CK1delta (Homo sapiens, UniProt P48730)
T6 construct: purchased Millipore, Inc. (KinaseProfiler service)
Experimental: as §1

[7] = biological target: T7, CK1gamma3 (Homo sapiens, UniProt Q9Y6M4)
T7 construct: purchased Millipore, Inc. (KinaseProfiler service)
Experimental: as §1

[8] = biological target: T8, CK2alpha2 (Homo sapiens, UniProt P19784)
T8 construct: purchased Millipore, Inc. (KinaseProfiler service)
Experimental: as §1

[9] = biological target: T9, CLK3 (Homo sapiens, UniProt P49761)
T9 construct: purchased Millipore, Inc. (KinaseProfiler service)
Experimental: as §1

[10] = biological target: T10, DDR2 (Homo sapiens, UniProt Q16832)
T10 construct: purchased Millipore, Inc. (KinaseProfiler service)
Experimental: as §1

[11] = biological target: T11, EphA5 (Homo sapiens, UniProt P54756)
T11 construct: purchased Millipore, Inc. (KinaseProfiler service)
Experimental: as §1

[12] = biological target: T12, EphB1 (Homo sapiens, UniProt P54762)
T12 construct: purchased Millipore, Inc. (KinaseProfiler service)
Experimental: as §1

[13] = biological target: T13, EphB3 (Homo sapiens, UniProt P54753)
T13 construct: purchased Millipore, Inc. (KinaseProfiler service)
Experimental: as §1

[14] = biological target: T14, Fes (Homo sapiens, UniProt P07332)
T14 construct: purchased Millipore, Inc. (KinaseProfiler service)
Experimental: as §1

[15] = biological target: T15, Fms (Homo sapiens, UniProt P07333)
T15 construct: purchased Millipore, Inc. (KinaseProfiler service)
T15 sequence (P07333 20-972): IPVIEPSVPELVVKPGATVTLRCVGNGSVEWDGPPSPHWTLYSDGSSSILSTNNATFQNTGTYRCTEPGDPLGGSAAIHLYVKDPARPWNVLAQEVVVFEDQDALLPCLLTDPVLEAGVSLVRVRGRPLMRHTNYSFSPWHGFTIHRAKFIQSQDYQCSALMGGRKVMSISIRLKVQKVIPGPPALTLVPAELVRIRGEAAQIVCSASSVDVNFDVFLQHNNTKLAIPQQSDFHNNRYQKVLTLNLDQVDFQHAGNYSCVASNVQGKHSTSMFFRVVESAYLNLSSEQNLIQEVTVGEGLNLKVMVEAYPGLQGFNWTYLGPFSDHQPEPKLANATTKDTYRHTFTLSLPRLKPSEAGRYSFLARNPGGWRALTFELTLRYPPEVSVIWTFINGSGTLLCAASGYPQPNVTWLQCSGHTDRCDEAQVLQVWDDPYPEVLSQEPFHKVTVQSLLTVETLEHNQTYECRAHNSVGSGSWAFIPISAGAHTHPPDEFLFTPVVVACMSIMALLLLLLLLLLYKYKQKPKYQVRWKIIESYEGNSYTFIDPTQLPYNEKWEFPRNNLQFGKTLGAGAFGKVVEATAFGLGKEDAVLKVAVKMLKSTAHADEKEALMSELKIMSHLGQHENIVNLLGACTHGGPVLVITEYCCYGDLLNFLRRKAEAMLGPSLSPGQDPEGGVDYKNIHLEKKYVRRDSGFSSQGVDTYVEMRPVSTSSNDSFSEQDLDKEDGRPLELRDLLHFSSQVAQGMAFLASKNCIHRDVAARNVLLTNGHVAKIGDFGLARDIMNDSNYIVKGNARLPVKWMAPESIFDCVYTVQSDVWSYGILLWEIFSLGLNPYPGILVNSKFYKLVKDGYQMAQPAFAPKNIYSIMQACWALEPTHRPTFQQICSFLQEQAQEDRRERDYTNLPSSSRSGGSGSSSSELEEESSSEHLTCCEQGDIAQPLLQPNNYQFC
Experimental: as §1

[16] = biological target: T16, IRR (Homo sapiens, UniProt P14616)
T16 construct: purchased Millipore, Inc. (KinaseProfiler service)
Experimental: as §1

[17] = biological target: T17, JAK2 (Homo sapiens, UniProt O60674)
T17 construct: purchased Millipore, Inc. (KinaseProfiler service)
Experimental: as §1

[18] = biological target: T18, LIMK1 (Homo sapiens, UniProt P53667)
T18 construct: purchased Millipore, Inc. (KinaseProfiler service)
T18 sequence (P53667 whole entry): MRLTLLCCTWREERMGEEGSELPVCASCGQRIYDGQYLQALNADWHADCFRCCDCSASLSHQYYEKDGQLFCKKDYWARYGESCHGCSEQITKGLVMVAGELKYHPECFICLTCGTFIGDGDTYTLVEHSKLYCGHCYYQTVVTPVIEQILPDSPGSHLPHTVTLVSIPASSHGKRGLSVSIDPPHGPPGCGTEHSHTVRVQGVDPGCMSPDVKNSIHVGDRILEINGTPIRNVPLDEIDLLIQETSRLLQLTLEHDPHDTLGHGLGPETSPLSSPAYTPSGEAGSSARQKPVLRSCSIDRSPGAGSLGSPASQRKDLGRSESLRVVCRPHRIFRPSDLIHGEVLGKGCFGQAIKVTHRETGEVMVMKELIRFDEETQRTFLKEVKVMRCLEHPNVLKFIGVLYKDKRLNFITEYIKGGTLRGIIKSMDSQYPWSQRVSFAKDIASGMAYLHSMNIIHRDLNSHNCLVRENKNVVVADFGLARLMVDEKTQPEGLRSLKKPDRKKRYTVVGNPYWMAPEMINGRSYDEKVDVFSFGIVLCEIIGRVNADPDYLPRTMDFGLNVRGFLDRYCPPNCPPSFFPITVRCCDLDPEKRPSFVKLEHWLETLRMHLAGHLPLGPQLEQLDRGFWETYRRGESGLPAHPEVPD
Experimental: as §1

[19] = biological target: T19, MRCKalpha (Homo sapiens, UniProt Q5VT25)
T19 construct: purchased Millipore, Inc. (KinaseProfiler service)
Experimental: as §1

[20] = biological target: T20, MYLK (Homo sapiens, UniProt Q15746)
T20 construct: purchased Millipore, Inc. (KinaseProfiler service)
Experimental: as §1

[21] = biological target: T21, NEK11 (Homo sapiens, UniProt Q8NG66)
T21 construct: purchased Millipore, Inc. (KinaseProfiler service)
Experimental: as §1

[22] = biological target: T22, NEK3 (Homo sapiens, UniProt P51956)
T22 construct: purchased Millipore, Inc. (KinaseProfiler service)
Experimental: as §1

[23] = biological target: T23, PAK2 (Homo sapiens, UniProt Q13177)
T23 construct: purchased Millipore, Inc. (KinaseProfiler service)
T23 sequence (Q13177 whole entry): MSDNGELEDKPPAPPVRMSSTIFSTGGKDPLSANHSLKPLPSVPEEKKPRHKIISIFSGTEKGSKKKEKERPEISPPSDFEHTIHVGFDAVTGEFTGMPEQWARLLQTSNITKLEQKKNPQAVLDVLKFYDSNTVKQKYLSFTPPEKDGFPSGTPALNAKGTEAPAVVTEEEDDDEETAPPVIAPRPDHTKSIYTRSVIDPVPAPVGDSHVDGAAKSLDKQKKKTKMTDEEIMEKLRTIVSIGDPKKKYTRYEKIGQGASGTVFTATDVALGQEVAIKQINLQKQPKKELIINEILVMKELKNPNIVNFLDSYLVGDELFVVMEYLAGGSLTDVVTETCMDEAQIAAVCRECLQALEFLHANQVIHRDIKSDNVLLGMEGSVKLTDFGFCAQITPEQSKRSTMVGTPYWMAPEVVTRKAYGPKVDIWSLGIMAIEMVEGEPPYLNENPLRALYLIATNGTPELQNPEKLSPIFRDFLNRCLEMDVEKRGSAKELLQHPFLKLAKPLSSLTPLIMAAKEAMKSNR
Experimental: as §1

[24] = biological target: T24, PAK4 (Homo sapiens, UniProt O96013)
T24 construct: purchased Millipore, Inc. (KinaseProfiler service)
Experimental: as §1

[25] = biological target: T25, PASK (Homo sapiens, UniProt Q96RG2)
T25 construct: purchased Millipore, Inc. (KinaseProfiler service)
Experimental: as §1

[26] = biological target: T26, PDK1 (Homo sapiens, UniProt O15530)
T26 construct: purchased Millipore, Inc. (KinaseProfiler service)
Experimental: as §1

[27] = biological target: T27, PKCalpha (Homo sapiens, UniProt P17252)
T27 construct: purchased Millipore, Inc. (KinaseProfiler service)
Experimental: as §1

[28] = biological target: T28, PTK5 (Homo sapiens, UniProt P42685)
T28 construct: purchased Millipore (KinaseProfiler service)
Experimental: as §1

[29] = biological target: T29, PhKgamma2 (Homo sapiens, UniProt P15735)
T29 construct: purchased Millipore, Inc. (KinaseProfiler service)
T29 sequence (P15735 whole entry): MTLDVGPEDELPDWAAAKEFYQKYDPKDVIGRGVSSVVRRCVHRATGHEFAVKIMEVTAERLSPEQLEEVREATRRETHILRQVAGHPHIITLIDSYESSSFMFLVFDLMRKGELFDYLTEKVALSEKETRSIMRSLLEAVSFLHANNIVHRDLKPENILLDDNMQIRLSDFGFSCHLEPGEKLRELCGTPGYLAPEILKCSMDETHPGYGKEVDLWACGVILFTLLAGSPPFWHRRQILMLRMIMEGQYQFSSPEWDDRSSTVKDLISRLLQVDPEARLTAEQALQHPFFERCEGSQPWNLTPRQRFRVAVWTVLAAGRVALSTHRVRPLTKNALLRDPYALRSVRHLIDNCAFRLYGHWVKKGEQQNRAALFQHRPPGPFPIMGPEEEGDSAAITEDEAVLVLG
Experimental: as §1

[30] = biological target: T30, Pim-1 (Homo sapiens, UniProt P11309)
T30 construct: purchased Millipore, Inc. (KinaseProfiler service)
Experimental: as §1

[31] = biological target: T31, Pim-3 (Homo sapiens, UniProt Q86V86)
T31 construct: purchased Millipore, Inc. (KinaseProfiler service)
Experimental: as §1

[32] = biological target: T32, Plk1 (Homo sapiens, UniProt P53350)
T32 construct: purchased Millipore (KinaseProfiler service)
T32 sequence (P53350 whole entry): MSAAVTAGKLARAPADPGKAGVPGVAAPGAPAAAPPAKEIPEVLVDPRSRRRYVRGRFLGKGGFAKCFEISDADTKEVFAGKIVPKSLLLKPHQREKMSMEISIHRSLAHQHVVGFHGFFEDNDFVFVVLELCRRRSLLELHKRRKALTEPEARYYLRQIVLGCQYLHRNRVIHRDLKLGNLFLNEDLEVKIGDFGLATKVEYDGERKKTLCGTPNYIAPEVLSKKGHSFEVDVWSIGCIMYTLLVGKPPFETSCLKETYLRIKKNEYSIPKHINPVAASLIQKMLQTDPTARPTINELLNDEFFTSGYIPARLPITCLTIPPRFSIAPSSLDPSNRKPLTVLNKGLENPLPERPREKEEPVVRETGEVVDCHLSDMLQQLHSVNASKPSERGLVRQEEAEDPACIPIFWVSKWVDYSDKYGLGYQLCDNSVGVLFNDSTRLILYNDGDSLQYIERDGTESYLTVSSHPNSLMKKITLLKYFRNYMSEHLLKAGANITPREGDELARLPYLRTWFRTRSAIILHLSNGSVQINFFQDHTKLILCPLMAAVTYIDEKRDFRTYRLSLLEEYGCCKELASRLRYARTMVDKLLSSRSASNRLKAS
Experimental: as §1

[33] = biological target: T33, PrKX (Homo sapiens, UniProt P51817)
T33 construct: purchased Millipore (KinaseProfiler service)
Experimental: as §1

[34] = biological target: T34, RIPK2 (Homo sapiens, UniProt O43353)
T34 construct: purchased Millipore (KinaseProfiler service)
T34 sequence (O43353 whole entry): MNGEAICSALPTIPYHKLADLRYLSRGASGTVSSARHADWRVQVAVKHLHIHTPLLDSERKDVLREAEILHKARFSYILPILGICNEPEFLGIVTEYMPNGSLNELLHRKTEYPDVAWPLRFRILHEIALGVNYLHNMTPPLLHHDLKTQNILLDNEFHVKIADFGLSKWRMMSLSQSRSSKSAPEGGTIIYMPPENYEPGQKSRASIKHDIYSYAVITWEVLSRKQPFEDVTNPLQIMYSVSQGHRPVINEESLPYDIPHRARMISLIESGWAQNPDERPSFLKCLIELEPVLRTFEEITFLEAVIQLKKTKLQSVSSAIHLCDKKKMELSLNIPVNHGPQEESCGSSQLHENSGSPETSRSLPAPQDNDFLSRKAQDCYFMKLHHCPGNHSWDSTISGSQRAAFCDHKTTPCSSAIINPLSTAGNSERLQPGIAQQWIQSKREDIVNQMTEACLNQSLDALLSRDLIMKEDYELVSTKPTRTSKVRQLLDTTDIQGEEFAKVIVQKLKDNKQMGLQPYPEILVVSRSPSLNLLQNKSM
Experimental: as §1

[35] = biological target: T35, Rsk3 (Homo sapiens, UniProt Q15349)
T35 construct: purchased Millipore (KinaseProfiler service)
Experimental: as §1

[36] = biological target: T36, TAO1 (Homo sapiens, UniProt Q7L7X3)
T36 construct: purchased Millipore, Inc. (KinaseProfiler service)
Experimental: as §1

[37] = biological target: T37, TBK1 (Homo sapiens, UniProt Q9UHD2)
T37 construct: purchased Millipore, Inc. (KinaseProfiler service)
Experimental: as §1

[38] = biological target: T38, TNK2 (Homo sapiens, UniProt Q07912)
T38 construct: purchased Millipore, Inc. (KinaseProfiler service)
T38 sequence (Q07912 whole entry): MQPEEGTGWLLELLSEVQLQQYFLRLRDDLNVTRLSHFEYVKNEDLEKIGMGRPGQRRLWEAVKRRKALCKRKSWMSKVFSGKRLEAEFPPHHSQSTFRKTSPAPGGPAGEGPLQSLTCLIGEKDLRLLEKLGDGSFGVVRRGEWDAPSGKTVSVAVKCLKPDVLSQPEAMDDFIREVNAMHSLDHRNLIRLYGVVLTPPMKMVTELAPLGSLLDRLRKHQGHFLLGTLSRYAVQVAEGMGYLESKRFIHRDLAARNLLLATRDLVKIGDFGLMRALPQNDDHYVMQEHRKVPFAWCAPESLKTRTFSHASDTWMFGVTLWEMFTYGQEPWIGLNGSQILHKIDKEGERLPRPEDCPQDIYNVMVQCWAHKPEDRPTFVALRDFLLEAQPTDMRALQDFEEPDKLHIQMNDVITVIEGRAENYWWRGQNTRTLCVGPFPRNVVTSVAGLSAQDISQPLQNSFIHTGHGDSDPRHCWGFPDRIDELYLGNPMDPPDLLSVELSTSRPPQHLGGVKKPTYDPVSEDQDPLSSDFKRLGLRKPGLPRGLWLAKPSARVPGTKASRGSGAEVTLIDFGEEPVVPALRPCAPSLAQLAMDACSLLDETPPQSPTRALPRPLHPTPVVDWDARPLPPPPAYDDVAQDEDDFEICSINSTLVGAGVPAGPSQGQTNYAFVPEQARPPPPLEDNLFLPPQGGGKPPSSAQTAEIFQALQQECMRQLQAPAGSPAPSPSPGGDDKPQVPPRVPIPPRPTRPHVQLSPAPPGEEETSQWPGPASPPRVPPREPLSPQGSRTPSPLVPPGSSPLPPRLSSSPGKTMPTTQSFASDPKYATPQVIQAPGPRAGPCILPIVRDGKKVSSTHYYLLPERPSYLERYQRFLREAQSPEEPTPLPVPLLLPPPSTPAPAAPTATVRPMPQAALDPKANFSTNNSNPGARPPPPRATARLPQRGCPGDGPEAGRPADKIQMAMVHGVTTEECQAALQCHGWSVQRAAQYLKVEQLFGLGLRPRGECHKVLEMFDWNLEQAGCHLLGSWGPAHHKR
Experimental: as §1

[39] = biological target: T39, TSSK1 (Homo sapiens, UniProt Q9BXA7)
T39 construct: purchased Millipore, Inc. (KinaseProfiler service)
Experimental: as §1

[40] = biological target: T40, Tie2 (Homo sapiens, UniProt Q02763)
T40 construct: purchased Millipore, Inc. (KinaseProfiler service)
Experimental: as §1

[41] = biological target: T41, mTOR/FKBP12 (Homo sapiens, UniProt P42345)
T41 construct: purchased Millipore, Inc. (KinaseProfiler service)
Experimental: as §1

- Avg. POC [1]: 104 POC
- Avg. POC [2]: 97 POC
- Avg. POC [3]: 118.5 POC
- Avg. POC [4]: 121 POC
- Avg. POC [5]: 138 POC
- Avg. POC [6]: 93 POC
- Avg. POC [7]: 112 POC
- Avg. POC [8]: 104 POC
- Avg. POC [9]: 107 POC
- Avg. POC [10]: 106 POC
- Avg. POC [11]: 123 POC
- Avg. POC [12]: 85 POC
- Avg. POC [13]: 107 POC
- Avg. POC [14]: 113.5 POC
- Avg. POC [15]: 87.5 POC
- Avg. POC [16]: 96 POC
- Avg. POC [17]: 117 POC
- Avg. POC [18]: 103 POC
- Avg. POC [19]: 101.5 POC
- Avg. POC [20]: 110 POC
- Avg. POC [21]: 109.5 POC
- Avg. POC [22]: 103 POC
- Avg. POC [23]: 100.5 POC
- Avg. POC [24]: 97.5 POC
- Avg. POC [25]: 111 POC
- Avg. POC [26]: 119.5 POC
- Avg. POC [27]: 103.5 POC
- Avg. POC [28]: 111 POC
- Avg. POC [29]: 98.5 POC
- Avg. POC [30]: 105 POC
- Avg. POC [31]: 98 POC
- Avg. POC [32]: 104 POC
- Avg. POC [33]: 120.5 POC
- Avg. POC [34]: 97.5 POC
- Avg. POC [35]: 107.5 POC
- Avg. POC [36]: 106 POC
- Avg. POC [37]: 114 POC
- Avg. POC [38]: 94.5 POC
- Avg. POC [39]: 107 POC
- Avg. POC [40]: 119 POC
- Avg. POC [41]: 110.5 POC
Compound: COCCN1C[C@@H](NC(=O)Nc2c(-c3ccccc3)nc3c(C)nccn23)[C@H](c2ccc(F)c(F)c2)C1 [Example 20, 1-((3S,4R)-4-(3,4-difluorophenyl)-1-(2-methoxyethyl)pyrrolidin-3-yl)-3-(8-methyl-2-phenylimidazo[1,2-a]pyrazin-3-yl)urea]
